Assay results taken from ChEMBL document CHEMBL3872220, “Amphiphilic xanthones as a potent chemical entity of anti-mycobacterial agents with membrane-targeting properties” (Eur J Med Chem, 2016).
≈ marks a conversion by molar mass, not a printed value.

Columns and labels:
[1] = test system: Mycolicibacterium smegmatis; assay: Antimycobacterial activity against Mycobacterium smegmatis MC2 155 after 24 hrs by broth dilution assay; type: functional; conditions: str. MC2 155, 24 h
[2] = test system: Mycolicibacterium smegmatis; assay: Antimycobacterial activity against Mycobacterium smegmatis MC2 155 assessed as inhibition of respiratory ATP synthesis by measuring ATP level at 4 times MIC measured after 1 hr by luciferase reporter gene assay (reference value: 90.6%); type: functional, str. MC2 155; design: scale not given: the % may be the effect or the level left
[3] = test system: Mycolicibacterium smegmatis; assay: Antimycobacterial activity against Mycobacterium smegmatis MC2 155 assessed as inhibition of respiratory ATP synthesis by measuring ATP level at 4 times MIC measured after 6 hrs by luciferase reporter gene assay (reference value: 152%); type: functional, str. MC2 155; design: scale not given: the % may be the effect or the level left
[4] = test system: Mycolicibacterium smegmatis; assay: Antimycobacterial activity against Mycobacterium smegmatis MC2 155 assessed as inhibition of respiratory ATP synthesis by measuring ATP level at 4 times MIC measured after 6 hrs by luciferase reporter gene assay (reference value: 212.7%); type: functional, str. MC2 155; design: scale not given: the % may be the effect or the level left
[5] = test system: Mycolicibacterium smegmatis; assay: Antimycobacterial activity against Mycobacterium smegmatis MC2 155 assessed as inhibition of respiratory ATP synthesis by measuring ATP level at 2 times MIC measured after 3 hrs by luciferase reporter gene assay (reference value: 158.3%); type: functional, str. MC2 155; design: scale not given: the % may be the effect or the level left
Staphylococcus aureus [6] = assay: Antibacterial activity against methicillin-resistant Staphylococcus aureus isolate DM21455; type: functional
Staphylococcus aureus [7] = assay: Antibacterial activity against Staphylococcus aureus isolate DM4001; type: functional
[8] = Hemolytic activity against New Zealand white rabbit RBC assessed as hemoglobin release measured after 1 hr; type: ADME, cell-based, Oryctolagus cuniculus, Erythrocyte; conditions: red blood cells
[9] = test system: Mycolicibacterium smegmatis; assay: Antimycobacterial activity against Mycobacterium smegmatis MC2 155 assessed as inhibition of respiratory ATP synthesis by measuring ATP level at 800 ug/ml measured after 9 hrs by luciferase […] assay (reference value: 212.7%); type: functional, str. MC2 155; design: scale not given: the % may be the effect or the level left
[10] = test system: Mycolicibacterium smegmatis; assay: Antimycobacterial activity against Mycobacterium smegmatis MC2 155 assessed as inhibition of respiratory ATP synthesis by measuring ATP level at 800 ug/ml measured after 1 hr by luciferase reporter gene assay (reference value: 90.6%); type: functional, str. MC2 155; design: scale not given: the % may be the effect or the level left
[11] = test system: Mycolicibacterium smegmatis; assay: Antimycobacterial activity against Mycobacterium smegmatis MC2 155 assessed as inhibition of respiratory ATP synthesis by measuring ATP level at 800 ug/ml measured after 6 hrs by luciferase reporter gene assay (reference value: 152%); type: functional, str. MC2 155; design: scale not given: the % may be the effect or the level left
[12] = test system: Mycolicibacterium smegmatis; assay: Antimycobacterial activity against Mycobacterium smegmatis MC2 155 assessed as inhibition of respiratory ATP synthesis by measuring ATP level at 800 ug/ml measured after 3 hrs by luciferase reporter gene assay (reference value: 158.3%); type: functional, str. MC2 155; design: scale not given: the % may be the effect or the level left
CYP3A4 = CYP3A4 (Homo sapiens, UniProt P08684); assay: Inhibition of CYP3A4 in human liver microsomes at 10 uM using midazolam as substrate preincubated for 5 min followed by NADPH addition measured after 10 mins by LC-MS/MS method relative to control; type: ADME; conditions: probe midazolam
Sequence of CYP3A4 (P08684 whole entry): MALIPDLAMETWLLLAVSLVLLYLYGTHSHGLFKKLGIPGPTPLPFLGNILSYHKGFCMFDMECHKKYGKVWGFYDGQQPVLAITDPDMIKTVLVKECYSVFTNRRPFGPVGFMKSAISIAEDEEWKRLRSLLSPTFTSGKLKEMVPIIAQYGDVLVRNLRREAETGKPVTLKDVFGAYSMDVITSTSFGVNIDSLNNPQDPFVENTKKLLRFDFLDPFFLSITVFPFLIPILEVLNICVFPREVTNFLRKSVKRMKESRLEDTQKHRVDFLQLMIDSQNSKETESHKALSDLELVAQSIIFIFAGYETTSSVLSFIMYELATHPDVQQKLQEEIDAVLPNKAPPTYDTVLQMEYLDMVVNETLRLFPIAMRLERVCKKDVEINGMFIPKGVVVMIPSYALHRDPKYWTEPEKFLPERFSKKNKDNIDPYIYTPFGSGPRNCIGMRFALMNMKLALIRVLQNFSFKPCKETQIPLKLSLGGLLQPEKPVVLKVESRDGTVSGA

[13] = Half life in rat liver microsomes at 1 uM preincubated for 5 mins followed by NADPH addition measured by LC-MS/MS method; type: ADME
[14] = Drug metabolism in rat liver microsomes at 1 uM preincubated for 5 mins followed by NADPH addition measured up to 30 mins by LC-MS/MS method; type: ADME; conditions: read-out: Drug metabolism
[15] = Cytotoxicity against human corneal fibroblasts assessed as reduction in ATP level measured after 4 hrs by Celltiter-Glo luminescent assay; type: toxicity, Corneal fibroblast
CYP2D6 = CYP2D6 (Homo sapiens, UniProt P10635); assay: Inhibition of CYP2D6 in human liver microsomes at 10 uM using bufuralol as substrate preincubated for 5 min followed by NADPH addition measured after 10 mins by LC-MS/MS method relative to control; type: ADME; conditions: probe bufuralol
Sequence of CYP2D6 (P10635 whole entry): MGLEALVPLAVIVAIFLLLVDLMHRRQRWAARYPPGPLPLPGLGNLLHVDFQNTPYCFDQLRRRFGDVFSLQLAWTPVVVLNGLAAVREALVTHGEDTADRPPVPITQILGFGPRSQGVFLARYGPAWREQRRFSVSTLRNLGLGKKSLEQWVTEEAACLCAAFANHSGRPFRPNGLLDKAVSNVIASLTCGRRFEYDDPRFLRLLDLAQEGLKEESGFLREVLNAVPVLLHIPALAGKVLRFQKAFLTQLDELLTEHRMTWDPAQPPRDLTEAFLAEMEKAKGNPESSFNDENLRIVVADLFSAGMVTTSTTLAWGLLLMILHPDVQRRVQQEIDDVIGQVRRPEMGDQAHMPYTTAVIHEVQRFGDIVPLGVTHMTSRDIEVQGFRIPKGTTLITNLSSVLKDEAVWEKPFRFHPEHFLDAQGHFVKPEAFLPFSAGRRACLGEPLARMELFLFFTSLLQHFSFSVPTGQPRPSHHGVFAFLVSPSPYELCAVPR

[16] = Cytotoxicity against human corneal fibroblasts assessed as increase in LDH level measured after 4 hrs by Cytotox-one […] assay; type: toxicity, Corneal fibroblast
CYP2C19 = CYP2C19 (Homo sapiens, UniProt P33261); assay: Inhibition of CYP2C19 in human liver microsomes at 10 uM using omeprazole as substrate preincubated for 5 min followed by NADPH addition measured after 10 mins by LC-MS/MS method relative to control; type: ADME; conditions: probe omeprazole
Sequence of CYP2C19 (P33261 whole entry): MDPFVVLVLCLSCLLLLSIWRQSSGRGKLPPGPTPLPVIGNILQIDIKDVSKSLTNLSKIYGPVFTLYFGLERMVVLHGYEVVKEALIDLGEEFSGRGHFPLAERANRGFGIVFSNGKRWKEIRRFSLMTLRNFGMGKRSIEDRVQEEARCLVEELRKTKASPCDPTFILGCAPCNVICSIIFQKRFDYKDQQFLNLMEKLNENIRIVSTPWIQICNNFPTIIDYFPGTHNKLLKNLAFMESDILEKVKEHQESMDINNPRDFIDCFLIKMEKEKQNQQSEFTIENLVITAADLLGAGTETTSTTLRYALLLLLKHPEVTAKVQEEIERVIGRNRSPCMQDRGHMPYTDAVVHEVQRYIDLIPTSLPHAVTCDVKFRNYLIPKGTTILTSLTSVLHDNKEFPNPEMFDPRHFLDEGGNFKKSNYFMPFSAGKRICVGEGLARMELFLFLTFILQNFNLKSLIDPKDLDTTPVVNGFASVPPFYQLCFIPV

[17] = test system: Mycolicibacterium smegmatis; assay: Antimycobacterial activity against Mycobacterium smegmatis by CLSI method; type: functional
[18] = test system: Mycobacterium intracellulare; assay: Antimycobacterial activity against Mycobacterium intracellulare by CLSI method; type: functional
Mycobacterium xenopi = assay: Antimycobacterial activity against Mycobacterium xenopi by CLSI method; type: functional
Mycobacteroides chelonae = assay: Antimycobacterial activity against Mycobacterium chelonae by CLSI method; type: functional
[19] = test system: Mycobacterium tuberculosis; assay: Antimycobacterial activity against Mycobacterium tuberculosis H37Ra measured after 7 days by alamar blue assay; type: functional; conditions: 168 h
[20] = Cytotoxicity against human MRC5 SV2 cells measured after 72 hrs by resazurin based fluorescence assay; type: toxicity, cell-based

| SMILES | MIC90 [1] | HC50 at 1 h [8] | inhibition at 10 min, 10 µM (CYP3A4) | half-life at 1 µM [13] | metabolised at 0.5 h, 1 µM [14] | CC50 at 4 h [15] | inhibition at 10 min, 10 µM (CYP2D6) | CC50 at 4 h [16] | inhibition at 10 min, 10 µM (CYP2C19) | further results |
| --- | --- | --- | --- | --- | --- | --- | --- | --- | --- | --- |
| CC[C@@H](CO)NCCN[C@@H](CC)CO [ETHAMBUTOL] | 1.25 µM (≈ 0.255 µg/mL) | – | – | – | – | – | – | – | – | Activity [2]: 113.5%; Activity [3]: 71.3%; Activity [4]: 79.7%; Activity [5]: 13.1% |
| COc1c(OCC(O)CNCCN)cc2oc3cc(OCC(O)CNCCN)c(CC=C(C)C)c(O)c3c(=O)c2c1CC=C(C)C (stereo not given) | > 30 µM | 125 µM | – | – | – | – | – | – | – | MIC (Staphylococcus aureus [6]): 5 µM (≈ 3.21 µg/mL); MIC (Staphylococcus aureus [7]): 10 µM (≈ 6.43 µg/mL) |
| COc1c(OCC(O)CNCCNC(=N)N)cc2oc3cc(OCC(O)CNCCNC(=N)N)c(CC=C(C)C)c(O)c3c(=O)c2c1CC=C(C)C (stereo not given) | > 30 µM | 141 µM | – | – | – | – | – | – | – | MIC (Staphylococcus aureus [6]): 5 µM (≈ 3.63 µg/mL); MIC (Staphylococcus aureus [7]): 5 µM (≈ 3.63 µg/mL) |
| O=C(CC(=O)C(F)(F)F)c1cccs1 | – | – | – | – | – | – | – | – | – | Activity [9]: 26.3%; Activity [10]: 36.8%; Activity [11]: 17.4%; Activity [12]: 25.8% |
| COc1c(OCC(=O)NC(CCCNC(=N)N)C(N)=O)cc2oc3cc(OCC(=O)NC(CCCNC(=N)N)C(N)=O)c(CC=C(C)C)c(O)c3c(=O)c2c1CC=C(C)C (stereo not given) | > 30 µM | 183 µM | 42% | > 30 min | 14.4% | 60.1 µM | 2% | 119 µM | 3% | – |
| COC(=O)C(CCCNC(=N)N)NC(=O)COc1cc2oc3cc(OCC(=O)NC(CCCNC(=N)N)C(=O)OC)c(OC)c(CC=C(C)C)c3c(=O)c2c(O)c1CC=C(C)C (stereo not given) | > 30 µM | 309 µM | 36% | > 30 min | 12.6% | 13.7 µM | 11% | 13.4 µM | 1% | MIC (Staphylococcus aureus [6]): 2.5 µM (≈ 2.17 µg/mL); MIC (Staphylococcus aureus [7]): 3.5 µM (≈ 3.03 µg/mL) |
| CCN(CC)CCOc1cc2oc3cc(OCCN(CC)CC)c(OC)c(CC=C(C)C)c3c(=O)c2c(O)c1CC=C(C)C | 3.2 µM (≈ 1.95 µg/mL) | > 328 µM | 20% | 12 min | 82.8% | 44.1 µM | 28% | 92.6 µM | 16% | – |
| CCN(CC)CCCCOc1cc2oc3cc(OCCCCN(CC)CC)c(OC)c(CC=C(C)C)c3c(=O)c2c(OCCCCN(CC)CC)c1CC=C(C)C | > 30 µM | > 252 µM | 40% | > 30 min | 11.6% | 43.7 µM | 30% | > 150 µM | 10% | – |
| COc1c(O)cc2oc3cc(O)c(CC=C(C)C)c(O)c3c(=O)c2c1CC=C(C)C [MANGOSTIN] | – | – | – | – | – | – | – | – | – | MIC [17]: 3.7 µM (≈ 1.52 µg/mL); MIC [18]: 3.7 µM (≈ 1.52 µg/mL); MIC (Mycobacterium xenopi): 3.7 µM (≈ 1.52 µg/mL); MIC (Mycobacteroides chelonae): 3.7 µM (≈ 1.52 µg/mL); MIC [19]: 6.25 µg/mL (≈ 15.2 µM); CC50 at 72 h [20]: 7.5 µM |
| COc1c(OCCCCN2CCSCC2)cc2oc3cc(OCCCCN4CCSCC4)c(CC=C(C)C)c(O)c3c(=O)c2c1CC=C(C)C | > 30 µM | > 276 µM | – | – | – | – | – | – | – | – |
| CCCN(CCC)CC(O)COc1cc2oc3cc(OCC(O)CN(CCC)CCC)c(OC)c(CC=C(C)C)c3c(=O)c2c(O)c1CC=C(C)C (stereo not given) | > 30 µM | > 276 µM | – | – | – | – | – | – | – | – |
| CO[C@H]1/C=C/O[C@@]2(C)Oc3c(C)c(O)c4c(O)c(c(/C=N/N5CCN(C)CC5)c(O)c4c3C2=O)NC(=O)/C(C)=C\C=C\[C@H](C)[C@H](O)[C@@H](C)[C@@H](O)[C@@H](C)[C@H](OC(C)=O)[C@@H]1C [RIFAMPIN] | 2.5 µM (≈ 2.06 µg/mL) | – | – | – | – | – | – | – | – | Activity [2]: 123.4%; Activity [3]: 66.5%; Activity [5]: 95.6% |
| CCN(CC)CCCOc1cc2oc3cc(OCCCN(CC)CC)c(OC)c(CC=C(C)C)c3c(=O)c2c(O)c1CC=C(C)C | 3.2 µM (≈ 2.04 µg/mL) | – | – | – | – | – | – | – | – | – |
